What was measured:
B. cepacia 25416 = assay: Activity test: preservative challenge test in emulsion, B. cepacia 25416; type: cell-based; conditions: 0.5% preservative in emulsion; for number of colonies per milliliter, 28 days: reinoculated at 21 days
Method: (§1) The emulsion was prepared by separately mixing components in phase A and phase B at 75-80° C. for 15 minutes. The phases were then combined and mixed for another 10 minutes and cooled to 45° C. with stirring. Preservative was then added followed by citric acid to adjust pH to from abut 6.5 to 7.5. Stirring of the resulting mixture was continued until a temperature of 30° C. was reached. The activity tests were carried out using the following microorganisms: A. niger, B. cepacia, C. albicans, E. coli, P. aeruginosa and S. aureus. 50 g aliquots of the test emulsion containing various amounts of the preservative admixture as reported in Tables I-V were inoculated with approximately 10^7 -10^8 of the test organisms. The test samples then were stirred to disperse the challenge inoculum. The samples were incubated and assayed at 48 hours, 7, 14, 21 and 28 days. The assays were performed on 1 g, of the test sample by serially diluting 10^3 to 10^6 of the original concentration. The plating medium for bacteria was Letheen agar and for fungi it was low pH Mycophil agar with Tween 20. Each plated sample was incubated for 48 hours at 37° C. for bacteria, 5 days at 25° C. for mold and 3 days at 25° C. for fungi. After incubation, readings of the number of colonies per milliliter (cfu/ml) were made results were determined, as reported in associated Tables IA-VA. At 21 days the test product was reinoculated with half of the original inoculum.

C. albicans 10231 = assay: Activity test: preservative challenge test in emulsion, C. albicans 10231; type: cell-based; conditions: 0.5% preservative in emulsion; for number of colonies per milliliter, 28 days: reinoculated at 21 days
Method: as §1

S. aureus 6538 = assay: Activity test: preservative challenge test in emulsion, S. aureus 6538; type: cell-based; conditions: 0.5% preservative in emulsion; for number of colonies per milliliter, 28 days: reinoculated at 21 days
Method: as §1

P. aeruginosa 9027 = assay: Activity test: preservative challenge test in emulsion, P. aeruginosa 9027; type: cell-based; conditions: 0.5% preservative in emulsion; for number of colonies per milliliter, 28 days: reinoculated at 21 days
Method: as §1

A. niger 16404 = assay: Activity test: preservative challenge test in emulsion, A. niger 16404; type: cell-based; conditions: 0.5% preservative in emulsion; for number of colonies per milliliter, 28 days: reinoculated at 21 days
Method: as §1

E. coli 8739 = assay: Activity test: preservative challenge test in emulsion, E. coli 8739; type: cell-based; conditions: 0.5% preservative in emulsion; for number of colonies per milliliter, 28 days: reinoculated at 21 days
Method: as §1

[1] = Partition coefficients (log of oil/water solubility)
From the text: A greater water partitioning is indicated by a low log value.

Compound | number of colonies per milliliter, 48 hr (B. cepacia 25416) | number of colonies per milliliter, 7 days (B. cepacia 25416) | number of colonies per milliliter, 14 days (B. cepacia 25416) | number of colonies per milliliter, 21 days (B. cepacia 25416) | number of colonies per milliliter, 28 days (B. cepacia 25416) | number of colonies per milliliter, 48 hr (C. albicans 10231) | number of colonies per milliliter, 7 days (C. albicans 10231) | number of colonies per milliliter, 14 days (C. albicans 10231) | number of colonies per milliliter, 21 days (C. albicans 10231) | number of colonies per milliliter, 28 days (C. albicans 10231) | number of colonies per milliliter, 48 hr (S. aureus 6538) | number of colonies per milliliter, 7 days (S. aureus 6538) | number of colonies per milliliter, 14 days (S. aureus 6538) | number of colonies per milliliter, 21 days (S. aureus 6538) | number of colonies per milliliter, 28 days (S. aureus 6538) | number of colonies per milliliter, 48 hr (P. aeruginosa 9027) | number of colonies per milliliter, 7 days (P. aeruginosa 9027) | number of colonies per milliliter, 14 days (P. aeruginosa 9027) | number of colonies per milliliter, 21 days (P. aeruginosa 9027) | number of colonies per milliliter, 28 days (P. aeruginosa 9027) | other results
CC=CC=CCOC(=O)c1ccc(O)cc1O [2,4-Hexadienyl-2,4-dihydroxybenzoate, 2,4-Hexadienyl-2,4-Dihydroxybenzoate] | < 10^6 cfu/ml | < 10^6 cfu/ml | < 10^6 cfu/ml | < 10^6 cfu/ml | < 10^6 cfu/ml | < 10 cfu/ml | < 10 cfu/ml | < 10 cfu/ml | < 10 cfu/ml | < 10 cfu/ml | < 10 cfu/ml | < 10 cfu/ml | < 10 cfu/ml | < 10 cfu/ml | < 10 cfu/ml | < 10 cfu/ml | < 10 cfu/ml | < 10 cfu/ml | < 10 cfu/ml | < 10 cfu/ml | number of colonies per milliliter, 48 hr (A. niger 16404): 4200 cfu/ml; number of colonies per milliliter, 7 days (A. niger 16404): 30 cfu/ml; number of colonies per milliliter, 14 days (A. niger 16404): < 10 cfu/ml; number of colonies per milliliter, 21 days (A. niger 16404): < 10 cfu/ml; number of colonies per milliliter, 28 days (A. niger 16404): < 10 cfu/ml; number of colonies per milliliter, 48 hr (E. coli 8739): < 10 cfu/ml; number of colonies per milliliter, 7 days (E. coli 8739): < 10 cfu/ml; number of colonies per milliliter, 14 days (E. coli 8739): < 10 cfu/ml; number of colonies per milliliter, 21 days (E. coli 8739): < 10 cfu/ml; number of colonies per milliliter, 28 days (E. coli 8739): < 10 cfu/ml
CC=CC=CCOC(=O)c1ccc(O)cc1 [2,4-Hexadienyl-4-Hydroxybenzoate] | < 10^6 cfu/ml | < 10^6 cfu/ml | < 10^6 cfu/ml | < 10^6 cfu/ml | < 10^6 cfu/ml | < 10 cfu/ml | < 10 cfu/ml | < 10 cfu/ml | < 10 cfu/ml | < 10 cfu/ml | < 10 cfu/ml | < 10 cfu/ml | < 10 cfu/ml | < 10 cfu/ml | < 10 cfu/ml | < 10 cfu/ml | < 10 cfu/ml | < 10 cfu/ml | < 10 cfu/ml | < 10 cfu/ml | number of colonies per milliliter, 48 hr (A. niger 16404): 4800 cfu/ml; number of colonies per milliliter, 7 days (A. niger 16404): < 10 cfu/ml; number of colonies per milliliter, 14 days (A. niger 16404): < 10 cfu/ml; number of colonies per milliliter, 21 days (A. niger 16404): < 10 cfu/ml; number of colonies per milliliter, 28 days (A. niger 16404): < 10 cfu/ml; number of colonies per milliliter, 48 hr (E. coli 8739): < 10 cfu/ml; number of colonies per milliliter, 7 days (E. coli 8739): < 10 cfu/ml; number of colonies per milliliter, 14 days (E. coli 8739): < 10 cfu/ml; number of colonies per milliliter, 21 days (E. coli 8739): < 10 cfu/ml; number of colonies per milliliter, 28 days (E. coli 8739): < 10 cfu/ml
CCCCOC(=O)c1ccc(O)cc1 [Parahydroxy butyl benzoate] | – | – | – | – | – | – | – | – | – | – | – | – | – | – | – | – | – | – | – | – | Log P [1]: 3.57
CCOC(=O)c1ccc(O)cc1 [Parahydroxy ethyl benzoate] | – | – | – | – | – | – | – | – | – | – | – | – | – | – | – | – | – | – | – | – | Log P [1]: 2.47

Reference: patent US6316500A, “Aliphatically unsaturated hydroxy benzoates and preservative compositions thereof” (ISP Investments Inc., priority 1999, dated 2001)
